From paper PMC11191602, “A novel and selective fluorescent ligand for the study of adenosine A2B receptors” (Pharmacology Research & Perspectives, 2024)

Key:
[1] = biological target: T1, human NLuc‐A2AR (Homo sapiens, UniProt P29274); assay: NanoBRET saturation binding in HEK293G cells transiently transfected with NLuc‐A2AR; conditions: non‐specific defined with 1 μM SCH58261; PSB603‐BY630 at concentrations up to 500 nM
T1 construct: expressed in transfected cells; host or cells: HEK293G, transient transfection with pcDNA3.1 NLuc-A2AR (FuGENE HD)
T1 sequence (P29274 whole entry): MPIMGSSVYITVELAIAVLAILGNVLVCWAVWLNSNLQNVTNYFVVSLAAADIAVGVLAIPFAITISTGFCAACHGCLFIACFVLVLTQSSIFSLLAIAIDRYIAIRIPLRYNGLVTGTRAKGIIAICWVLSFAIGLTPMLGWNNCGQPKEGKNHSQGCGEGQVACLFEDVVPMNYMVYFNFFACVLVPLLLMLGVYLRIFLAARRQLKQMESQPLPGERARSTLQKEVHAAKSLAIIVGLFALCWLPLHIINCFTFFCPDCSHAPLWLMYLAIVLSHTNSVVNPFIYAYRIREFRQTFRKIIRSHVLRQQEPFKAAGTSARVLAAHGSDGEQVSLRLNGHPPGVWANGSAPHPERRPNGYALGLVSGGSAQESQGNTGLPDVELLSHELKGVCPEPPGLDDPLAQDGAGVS
Description: The human A2A receptor cDNA was obtained from Missouri S&T cDNA Resource Centre (www.cdna.org) in a pcDNA3.1 expression vector. An N‐terminal nanoluciferase (NLuc)‐labeled human A2AR receptor constructs (NLuc‐A2AR) was then generated in frame with the full length NLuc incorporating a rat 5‐HT3A membrane localisation signal sequence in pcDNA3.1 as described previously.[37] For transient transfections, HEK293G cells were seeded at 20000 cells/well into white walled, clear bottomed 96‐wells plates (Greiner Bio‐One, Stonehouse, UK), coated with 10 μg/mL poly‐D‐lysine, in 100 μL medium/well and incubated at 37°C and 5% CO2 for 18–24 h. […]
Saturation and competition binding assays were performed as previously described.[36] […] The resulting bioluminescence resonance energy transfer (BRET) was measured using a PHERAstar FS plate reader (BMG Labtech) at 37°C. For each well, filtered light emissions at 460 nm (80 nm bandpass) and >610 nm (longpass) for the BODIPY630/650 ligand were simultaneously measured. BRET ratios were calculated by dividing the 610 nm emission by the 460 nm emission. […] For kinetic experiments, cells were preincubated for 10 min with 1:400 dilution of furimazine prior to addition of 200 nM PSB603‐BY630 and BRET ratios determined every 0.5 min. […]

[2] = biological target: T2, human NLuc‐A3R (Homo sapiens, UniProt P0DMS8); assay: NanoBRET saturation binding in stable HEK293G cell line expressing NLuc‐A3R; conditions: non‐specific defined with 1 μM MRS‐1220; PSB603‐BY630 at concentrations up to 500 nM
T2 construct: expressed in transfected cells
T2 sequence (P0DMS8 1-318): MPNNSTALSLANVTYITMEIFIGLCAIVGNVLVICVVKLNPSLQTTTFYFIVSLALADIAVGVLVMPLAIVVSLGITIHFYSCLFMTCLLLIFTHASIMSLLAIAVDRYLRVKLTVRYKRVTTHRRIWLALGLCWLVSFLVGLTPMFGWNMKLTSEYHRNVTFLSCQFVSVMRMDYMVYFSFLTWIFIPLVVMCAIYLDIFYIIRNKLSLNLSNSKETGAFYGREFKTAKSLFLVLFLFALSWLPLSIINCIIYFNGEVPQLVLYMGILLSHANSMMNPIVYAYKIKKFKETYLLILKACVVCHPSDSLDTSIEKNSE
Description: Saturation and competition binding assays were performed as previously described.[36] Briefly, cells were seeded in 96‐well white clear‐bottomed Greiner plates pre‐treated with 10 μg/mL poly‐D‐lysine (Sigma‐Aldrich, Missouri USA) at a density of 30 000–35 000 cells per well in DMEM supplemented with 10% FBS. […] The NanoLuc substrate, furimazine (Promega Corporation, Wisconsin, USA), was then added to each well (1:400 dilution) and the plate was incubated for 10 min in the dark at 37°C. The resulting bioluminescence resonance energy transfer (BRET) was measured using a PHERAstar FS plate reader (BMG Labtech) at 37°C. For each well, filtered light emissions at 460 nm (80 nm bandpass) and >610 nm (longpass) for the BODIPY630/650 ligand were simultaneously measured. BRET ratios were calculated by dividing the 610 nm emission by the 460 nm emission. All conditions were performed in 2–6 replicates within each plate. For kinetic experiments, cells were preincubated for 10 min with 1:400 dilution of furimazine prior to addition of 200 nM PSB603‐BY630 and BRET ratios determined every 0.5 min. At 60 min, 10 μM MRS‐1706 was added and the ligand‐binding kinetics followed for a further 60 min.

[3] = biological target: T3, endogenous A2BR (Homo sapiens, UniProt P29275); assay: cAMP GloSensor luminescence assay in HEK293G cells endogenously expressing A2BR; type: cell-based; conditions: 20 nM and 200 nM PSB603‐BY630, endogenous A2BR
T3 construct: HEK293G cells that express the cAMP biosensor Glosensor also endogenously express both A2BR and A2AR; host or cells: HEK293G
T3 sequence (P29275 1-332): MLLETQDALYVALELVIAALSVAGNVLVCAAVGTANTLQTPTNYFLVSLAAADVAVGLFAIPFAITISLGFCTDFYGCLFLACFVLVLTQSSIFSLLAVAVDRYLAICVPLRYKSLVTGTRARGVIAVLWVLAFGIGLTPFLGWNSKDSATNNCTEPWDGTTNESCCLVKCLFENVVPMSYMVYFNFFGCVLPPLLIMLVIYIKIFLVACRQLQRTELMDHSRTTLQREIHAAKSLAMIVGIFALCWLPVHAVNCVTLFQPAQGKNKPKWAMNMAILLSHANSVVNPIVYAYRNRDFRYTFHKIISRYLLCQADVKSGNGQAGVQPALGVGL
Description: (§1) The cAMP GloSensor™ luminescence assay was performed according to the manufacturer's instructions (Promega Corporation, Madison, WI, USA). Briefly, after 24 h incubation at 37°C and 5% CO2 after cell plating (40 000 cells/well in 100 μL), medium was aspirated from each well of the 96‐well plate. Cells were incubated in 50 μL HEPES buffered saline solution (HBSS; 2 mM sodium pyruvate, 145 mM NaCl, 10 mM D‐glucose, 5 mM KCl, 1 mM MgSO4.7H2O, 10 mM HEPES, 1.3 mM CaCl2, 1.5 mM NaHCO3 in double‐distilled water, pH 7.45) containing 3% GloSensor™ cAMP reagent at 37°C for 1.5 h. For agonist studies, an initial baseline luminescence read was made at time zero, the plate was then removed from the plate‐reader and a further 50 μL HBSS containing agonist (2× final concentration) or HBSS (vehicle control) added. Luminescence was measured on an open channel (gain of 3600) immediately after these additions, and then continuously over 60 min, reading each well once every minute, by a PHERAstar FSX microplate reader (BMG Labtech, Offenburg, Germany) at 37°C. Increases in luminescence are indicative of intracellular cAMP accumulation, thus the temporal changes in relative cytosolic cAMP concentration were measured upon agonist or vehicle addition. Antagonist action was determined following 30 min pre‐incubation of HBSS in the presence of 20 and 200 nM PSB603‐BY630 and read as above. All conditions were performed in triplicates within each plate.

[4] = biological target: T4, NLuc‐A2BR (Homo sapiens, UniProt P29275); assay: cAMP GloSensor luminescence assay in HEK293G cells overexpressing NLuc‐A2BR; type: cell-based; conditions: 20 nM and 200 nM PSB603‐BY630, overexpressed NLuc‐A2BR
T4 construct: expressed in transfected cells
T4 sequence (P29275 1-332): T3 sequence (P29275 1-332)
Description: as §1

Q: How did the “specific binding to NLuc‐A2AR” value [1] turn out when `CCCn1c(=O)[nH]c2[nH]c(-c3ccc(S(=O)(=O)N4CCN(c5ccc(OCCNC(=O)CCCCCNC(=O)COc6ccc(/C=C/C7=[N+]8C(=Cc9ccc(-c%10cccs%10)n9[B-]8(F)F)C=C7)cc6)cc5)CC4)cc3)nc2c1=O` [PSB603‐BY630] was run?
A: negligible

Q: And the “specific binding to NLuc‐A3R” value [2]?
A: negligible

Q: What about the “effect on cAMP concentration‐response curve to BAY 60–6583” value [3] of the same compound?
A: concentration‐dependent reduction in the maximal response to BAY 60–6583 without altering the EC50

Q: What about the “effect on cAMP concentration‐response curve to BAY 60–6583” value [4] of the same compound?
A: small increase in the EC50 for BAY 60–6583
